Literature values as cited in publication PMC11014758 (ACS infectious diseases, 2024).

Columns and labels:
LasR [1] = molecular target: T1, LasR (Pseudomonas aeruginosa, UniProt P25084); settings: same strain, analogous assay conditions; ref Moore et al. 2015 [15]
LasR [2] = molecular target: T1, LasR; settings: same strain, analogous assay conditions; ref Moore et al. 2015 [15]; remark: listed apart in the source

T1 sequence (P25084 whole entry): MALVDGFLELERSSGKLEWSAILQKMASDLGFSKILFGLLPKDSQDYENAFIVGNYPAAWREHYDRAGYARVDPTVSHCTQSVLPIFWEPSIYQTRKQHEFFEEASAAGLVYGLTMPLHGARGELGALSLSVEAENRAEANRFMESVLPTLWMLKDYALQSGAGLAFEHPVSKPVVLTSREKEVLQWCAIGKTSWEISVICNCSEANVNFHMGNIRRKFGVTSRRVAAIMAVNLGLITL

| Compound | Maximum Activation (LasR [1]) [%] | IC50 (LasR [2]) [µM] | Maximum Inhibition (LasR [2]) [%] |
| --- | --- | --- | --- |
| CCCCCCCCCC(=O)CC(=O)N[C@H]1CCOC1=O [OdDHL, N-(3-oxo)-dodecanoyl L-homoserine lactone] | 100 |  |  |
| CCCCCCCCCNC(=O)CC(=O)c1ccccc1 [V-06–018] |  | 5.2 |  |
| chlorolactone [CL] |  | 21 | 55 |
